pIC50: −log10 of the molar value.
Experiments:
[1] = tested on: human Pancreatic cancer cell line BXPC3; assay: Colony formation assay, pancreatic cancer cell line BXPC3; format: cell-based; conditions: for potentiation of gemcitabine (surviving colonies) / activity on their own against the pancreatic cancer cells (surviving colonies): BXPC3, FIG. 16; for potentiation of gemcitabine (surviving colonies): 2 μM inhibitor + 0.3 μg/ml gemcitabine, 18 hrs, normalized to gemcitabine; for activity on their own against the pancreatic cancer cells (surviving colonies): 2 μM inhibitor, 18 hrs treatment, colonies after 14 days, normalized to DMSO; for BxPC3 Pancreatic activity: summary table / FIG. 34
Method: (§1) The human Pancreatic cancer cell line BXPC3 was plated (4000 cells per plate with a ˜10% plating efficiency) in 10 cm dishes, using 10 ml of RPMI media (always with 10% FBS) per plate, and placed in a […] incubator (5% CO2) for 24 hrs. After 24 hrs, each plate was treated with one or a combination of the following agents: DMSO (0.2% in solution), 0.3 μg/ml of gemcitabine (dissolved in 1×PBS), and/or 2 μM of each Metnase/Intnase inhibitor (dissolved in DMSO). When the DMSO, gemcitabine, and/or inhibitors were added, the plates were swirled several times to assure mixing. After the agents were added to the RPMI, the plates were put back into the incubators for 18 hrs. Following 18 hrs treatment, the media was removed and the cells were washed twice with 1×PBS. Ten ml of fresh RPMI with 10% FBS was added and the cells were placed back into the incubator for 14 days. After the incubation period that will allow surviving cells to form colonies, the media was discarded and surviving colonies were stained with methylene blue. Colonies, a reflection of a single surviving cell that expanded, were counted to measure survival. All experiments were run in triplicate. Experiments were normalized to either DMSO (black asterices) or gemcitabine (red asterices).

[2] = tested on: human colon cancer cell line SW48; assay: Colony formation assay, colon cancer cell line SW48; format: cell-based; conditions: FIG. 17; for activity on their own against the colon cancer cells (surviving colonies): 2 μM inhibitor, 18 hr treatment, colonies after 7-14 days, normalized to DMSO
Method: (§2) The human colon cancer cell line SW48 was plated (1000 cells per plate with a ˜20% plating efficiency) in 10 cm dishes, using 10 ml of DMEM media (always with 10% FBS) per plate, and placed in a […] incubator (5% CO2) for 24 hrs. After 24 hr, each plate was treated with one or a combination of the following agents: DMSO (0.2% in solution), 3 μM 5-fluorouracil (5FU, dissolved in 1×PBS), and/or 2 μM of each Metnase/intnase inhibitor (dissolved in DMSO). When the DMSO, 5FU, and/or inhibitors were added, the plates were swirled several times to assure mixing. After agents were added to the DMEM, the plates were put back into the incubators for 18 hr. Following 18 hr treatment, the media was removed and the cells were washed twice with 1×PBS. Ten milliliters of fresh DMEM was added and the cells were placed back into the incubator for 7-14 days. After the incubation period that will allow surviving cells to grow and form colonies, media was discarded and surviving colonies were stained with methylene blue. Colonies, a reflection of a single surviving cell that expanded, were counted to measure survival. All experiments were run in triplicate. Experiments were normalized to either DMSO (black asterices) or 5FU (red asterices).

[3] = tested on: human myeloid cell line KG-1; assay: Leukemia cell line KG-1 growth curve, alone or with VP-16; format: cell-based; conditions: for effect of compound alone on KG-1 growth, high dose: high (higher) dose of compound (added at 2 uM and 5 uM); for effect of compound alone on KG-1 growth, high dose / potentiation of low dose VP-16 on KG-1 growth, high dose of compound / effect of compound alone on KG-1 growth, lower/low dose / potentiation of low dose VP-16 on KG-1 growth, lower/low dose of compound: counted daily for 4 days; for potentiation of low dose VP-16 on KG-1 growth, high dose of compound: high (higher) dose of compound + VP-16 0.05 uM; for effect of compound alone on KG-1 growth, lower/low dose: lower (low) dose of compound (added at 2 uM and 5 uM); for potentiation of low dose VP-16 on KG-1 growth, lower/low dose of compound: lower (low) dose of compound + VP-16 0.05 uM; for KG-1 Leukemia cooperativity with VP-16 / KG-1 Leukemia potency: summary table / FIG. 34
Method: (§3) The human myeloid cell line KG-1 was grown in RPMI1640 with 10% FBS. The small cell lung cancer cell line CRL5898 was grown in HITES medium (Dulbecco's medium: Ham's F12, 50:50 mix, Insulin 0.005 mg/ml Transferrin 0.01 mg/ml Sodium selenite 30 nM Hydrocortisone 10 nM beta-estradiol 10 nM HEPES 10 mM L-glutamine 2 mM (in addition to that in the base medium)). Both cell lines were seeded at 10,000 cells/ml in the appropriate medium in 6 well plates. The Chem Div compounds were resuspended as 5 mM stock solutions in DMSO. The Chem Div compounds were added alone at 2 uM and 5 uM or in combination with VP-16 (also called etoposide) at 0.05 uM. DMSO was added to the control wells. Cells were plated and treated in triplicate and counted daily for 4 days.

[4] = tested on: small cell lung cancer cell line CRL5898; assay: Small cell lung cancer cell line CRL5898 growth, alone or with VP-16; format: cell-based; conditions: summary table / FIG. 34
Method: as §3

[5] = tested on: cancer cells; assay: Summary statements: cytotoxicity for cancer cells alone and with chemotherapy; format: cell-based; conditions: summary statement referring to figures
Method: as §1, §2, §3

[6] = tested on: CYP3A; conditions: cited from earlier work
[7] = in vivo; cited from earlier work
[8] = tested on: human DNA polymerases; conditions: cited from earlier work
[9] = biological target: 166 enzymes, transporters and receptors; conditions: read-out: IC50 in screening panel, all assays; cited from earlier work
[10] = biological target: ABCB1 (MDR-1; P-gp) (Homo sapiens, UniProt P08183); conditions: not told; cited from earlier work
Chain of ABCB1 (MDR-1; P-gp) (P08183 whole entry, species assumed): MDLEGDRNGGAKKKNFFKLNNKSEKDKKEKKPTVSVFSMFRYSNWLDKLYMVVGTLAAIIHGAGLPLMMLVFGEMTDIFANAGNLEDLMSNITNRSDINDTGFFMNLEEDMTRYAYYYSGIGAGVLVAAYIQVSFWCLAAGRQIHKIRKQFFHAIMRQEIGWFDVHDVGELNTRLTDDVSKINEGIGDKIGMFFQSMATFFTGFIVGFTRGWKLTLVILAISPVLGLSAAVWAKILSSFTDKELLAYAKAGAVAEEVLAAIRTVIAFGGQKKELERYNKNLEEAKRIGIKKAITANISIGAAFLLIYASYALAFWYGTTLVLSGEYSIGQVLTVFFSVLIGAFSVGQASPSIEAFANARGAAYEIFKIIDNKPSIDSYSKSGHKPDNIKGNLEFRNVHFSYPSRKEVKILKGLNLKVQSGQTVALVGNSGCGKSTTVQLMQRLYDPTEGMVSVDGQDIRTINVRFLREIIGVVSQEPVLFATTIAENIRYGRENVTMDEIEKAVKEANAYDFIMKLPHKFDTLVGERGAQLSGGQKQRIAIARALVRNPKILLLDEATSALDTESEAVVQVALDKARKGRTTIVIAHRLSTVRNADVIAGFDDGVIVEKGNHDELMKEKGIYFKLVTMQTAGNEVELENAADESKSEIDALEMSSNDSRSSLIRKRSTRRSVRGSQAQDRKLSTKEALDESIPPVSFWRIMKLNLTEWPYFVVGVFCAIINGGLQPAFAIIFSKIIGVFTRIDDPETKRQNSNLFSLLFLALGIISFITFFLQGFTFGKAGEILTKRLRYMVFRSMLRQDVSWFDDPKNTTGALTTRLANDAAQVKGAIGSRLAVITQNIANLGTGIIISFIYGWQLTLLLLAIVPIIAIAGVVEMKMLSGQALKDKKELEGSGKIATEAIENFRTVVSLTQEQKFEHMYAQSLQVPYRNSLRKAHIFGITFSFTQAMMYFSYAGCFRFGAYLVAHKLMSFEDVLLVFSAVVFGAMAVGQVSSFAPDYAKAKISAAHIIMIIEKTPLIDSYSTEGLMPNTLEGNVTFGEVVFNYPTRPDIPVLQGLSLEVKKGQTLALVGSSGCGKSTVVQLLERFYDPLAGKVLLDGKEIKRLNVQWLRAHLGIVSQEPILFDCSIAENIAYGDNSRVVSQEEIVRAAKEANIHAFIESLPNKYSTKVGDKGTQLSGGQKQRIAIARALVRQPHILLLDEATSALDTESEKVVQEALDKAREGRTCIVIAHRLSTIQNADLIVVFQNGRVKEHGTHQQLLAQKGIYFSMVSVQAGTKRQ

[11] = tested on: cytochrome P450 enzymes; conditions: cited from earlier work

Row | SMILES | potentiation of gemcitabine (surviving colonies) [1] | activity on their own against the pancreatic cancer cells (surviving colonies) [1] | BxPC3 Pancreatic activity [1] | activity on their own against the colon cancer cells (surviving colonies) [2] | effect of compound alone on KG-1 growth, high dose [3] | potentiation of low dose VP-16 on KG-1 growth, high dose of compound [3] | effect of compound alone on KG-1 growth, lower/low dose [3] | potentiation of low dose VP-16 on KG-1 growth, lower/low dose of compound [3] | KG-1 Leukemia cooperativity with VP-16 [3] | KG-1 Leukemia potency [3] | CLR5898 Small Cell Lung Cancer cooperativity with VP-16 [4] | CLR5898 Small Cell Lung Cancer potency [4] | cytotoxicity for cancer cells with chemotherapy agents (potentiation) [5] | cytotoxicity for cancer cells, compound alone [5] | Serum half-life [7] [h] | further results
1 | CC(C)n1cc(C(=O)O)c(=O)c2ccccc21 [5483-0023] | potentiate gemcitabine | activity on their own | Active | activity on their own | decreased KG-1 leukemia cell growth especially with longer treatment | potentiated the anti-proliferative effect of low dose VP-16 | decreased KG-1 leukemia cell growth, similar to low dose VP-16 | potentiated the anti-proliferative effect of low dose VP-16 | Cooperativity with VP-16 | Potency in uM | No or very | Potency in uM | increased the cytotoxicity of chemotherapy when added | cytotxoic for cancer cells alone | – | potentiation of 5FU (surviving colonies) ([2]; 2 μM inhibitor + 3 μM 5-fluorouracil, 18 hr, normalized to 5FU): potentiate 5FU
2 | O=C(O)c1ccc(N2C(=O)Nc3ccccc3N2O)cc1O [D0045-0007] | potentiate gemcitabine | activity on their own | – | activity on their own | – | – | decreased KG-1 leukemia cell growth compared to control | potentiated the anti-proliferative effect of low dose VP-16 | – | – | – | – | increased the cytotoxicity of chemotherapy when added | cytotxoic for cancer cells alone | – | –
3 | COc1cc2c(cc1Cc1cccc(Cl)c1F)c(=O)c(C(=O)O)cn2[C@H](CO)C(C)C [Elvitegravir, 6-[(3-chloro-2-fluorophenyl)methyl]-1-[(2S)-1-hydroxy-3-methylbutan-2-yl]-7-methoxy-4-oxoquinoline-3-carboxylic acid, reference compound] | potentiate gemcitabine | activity on their own | – | – | – | – | – | – | – | – | – | – | – | cytotoxic for cancer cells alone | 3 | CYP3A induction [6]: moderate CYP3A inducer
4 | COc1ccc(Cn2c(C)c(CNC(C)c3ccccc3)c(C(=O)O)c2C)cc1 (centres unmarked) [G396-1171] | – | – | inactive | – | decreasedKG-1 leukemia cell growth, similar to low dose VP-16 alone | potentiated the anti-proliferative effect of low dose VP-16 | decreased KG-1 leukemia cell growth, similar to low dose VP-16 alone | potentiated the anti-proliferative effect of low dose VP-16 | Cooperativity with VP-16 | Potency in uM | No | Potency in uM | increased the cytotoxicity of chemotherapy when added | cytotxoic for cancer cells alone | – | –
5 | O=C(O)c1cc(=O)c2ccccc2o1 [R092-0025] | potentiate gemcitabine | activity on their own | – | activity on their own | – | – | – | – | – | – | – | – | increased the cytotoxicity of chemotherapy when added | cytotxoic for cancer cells alone | – | –
6 | Cc1nnc(C(=O)NC(C)(C)C2=N/C(=C(\O)NCc3ccc(F)cc3)C(=O)C(=O)N2C)o1 [Raltegravir, N-[2-[(4Z)-4-[[(4-fluorophenyl)methylamino]-hydroxymethylidene]-1-methyl-5,6-dioxopyrimidin-2-yl]propan-2-yl]-5-methyl-1,3,4-oxadiazole-2-carboxamide] | potentiate gemcitabine | activity on their own | – | activity on their own | – | – | little effect on leukemia cell growth | potentiated the anti-proliferative effect of low dose VP-16 | – | – | – | – | – | – | 9 | inhibition of human DNA polymerases [8]: does not inhibit; pIC50 [9]: < 5.00; inhibitor of ABCB1 (MDR-1; P-gp) [10]: not an inhibitor; substrate, inducer or inhibitor of cytochrome P450 enzymes [11]: not a substrate, nor an inducer or inhibitor

From patent US20120093917A1, “METNASE AND INTNASE INHIBITORS AND THEIR USE IN TREATING CANCER” (priority 2009, published 2012)
